Test results as given in ChEMBL document CHEMBL1158821, “Anti-inflammatory sesquiterpene-quinones from the New Zealand sponge Dysidea cf. cristagalli” (J Nat Prod, 2005).

Key:
[1] = Antiinflammatory activity in PMA-induced human neutrophils assessed as inhibition of superoxide production; format: functional, cell-based; details: Neutrophil
[2] = Toxicity against human HL60 cells assessed as inhibition of cell proliferation; format: cell-based; details: HL-60 cells

Row | Structure (SMILES) | IC50 [1] [nM] | IC50 [2] [nM]
1 | CC(=O)Oc1ccc(O)c(C[C@H]2C(C)=CC[C@H]3C(C)(C)CCC[C@]23C)c1O | 3000 | 370
2 | CC1=CC[C@H]2C(C)(C)CCC[C@]2(C)[C@H]1CC1=C(O)C(=O)C=CC1=O | 11000 | 340
